{
  "source": "paper PMC11207052",
  "about": "“Synthesis, Biological, and Computational Evaluations of Conformationally Restricted NAD-Mimics as Discriminant Inhibitors of Human NMN-Adenylyltransferase Isozymes” (Pharmaceuticals, 2024)",
  "key": {"hNMNAT-2": {"target": "T1, hNMNAT-2 (Homo sapiens, UniProt Q9BZQ4)", "T1 construct": "made in house", "T1 sequence (Q9BZQ4 whole entry)": "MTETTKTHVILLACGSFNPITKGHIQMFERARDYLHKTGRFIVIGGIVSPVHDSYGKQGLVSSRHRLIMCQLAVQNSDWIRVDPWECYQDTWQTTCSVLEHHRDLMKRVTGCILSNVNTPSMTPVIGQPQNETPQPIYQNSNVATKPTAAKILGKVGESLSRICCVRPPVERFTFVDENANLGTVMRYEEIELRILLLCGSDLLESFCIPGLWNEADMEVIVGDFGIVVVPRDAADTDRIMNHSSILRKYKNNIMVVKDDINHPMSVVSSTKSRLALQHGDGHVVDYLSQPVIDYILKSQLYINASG", "assay": "NMN adenylyltransferase activity assay (pyrophosphatase-coupled, malachite green), hNMNAT-2", "format": "biochemical", "set-up": "key to mode of inhibition (in brackets) towards NMN, hNMNAT-2 / mode of inhibition (in brackets) towards ATP, hNMNAT-2: M, mixed inhibition; C, competitive; U, uncompetitive", "details": "for enzyme inhibition in the initial screening, hNMNAT-2: fixed concentration of 0.5 mM inhibitor; for Ki: inhibitor 30 and 90 µM, ± std. error, αKi in the case of uncompetitive inhibition", "source_text": "(§1) The reaction catalyzed by NMN adenylyltransferase can be represented as NMN + ATP (NAD + PPi). To avoid interference of methyl NAD analogues with NAD-based detection assays, we used a “pyrophosphate-dependent” coupled assay that couples NMNAT activity with inorganic pyrophosphatase (PPase) that hydrolyzes PPi into two molecules of inorganic phosphate (Pi). Phosphate was quantified using a malachite green dye as described. Enzyme purification procedures followed previous reports. The reactions were carried out using a 96-well microplate assay format at room temperature in a total volume of 50 µL per well. The reaction mixtures contained 100 mM Hepes, pH 7.5, 10 mM MgCl2, 0.1 mg/mL bovine serum albumin, and an excess of 4 U/mL of inorganic pyrophosphatase. The hNMNAT concentration, ranging from 3 to 15 nM, was adjusted in different tests to ensure initial velocity conditions (5–10% substrate depletion) while retaining a linear response. An amount of 100 µL of the malachite green reagent was added to each well to stop the reactions. Following a 20–30 min incubation period, the molybdate in the reagent formed a complex with the free phosphate, resulting in full-color development. The phosphate concentration was then quantified by measuring the absorbance at 620 nm using a microplate reader (Biotek Synergy HT) and interpolating these values against a pre-established standard curve. Absorbance from control reactions performed in the absence of hNMNAT were subtracted from absorbances of the respective reactions with the enzyme to account for background hydrolysis. Details for substrate and inhibitor concentration range are given below and in the legend of Figure 2. Assays with the inhibitors were carried out in triplicate, and the percentage of inhibition at each concentration was calculated for the initial screening at 0.5 mM.\n(§2) Values for inhibition constant Ki and α were determined by fitting the data to the rate equation for general mixed model inhibition: V = VmaxS/[Km(1 + I/Ki) + S(1 + I/[…])] using GraphPad Prism software version 7.05, where Vmax and Km are the classic Michaelis–Menten parameters, Ki is the equilibrium dissociation constant for the enzyme-inhibitor complex, S and I are the substrate and the inhibitor concentration, respectively. This model includes competitive, uncompetitive, and noncompetitive inhibition as special cases that the α values can diagnose. Further mechanistic insights into the mode of inhibition were drawn by graphical inspection of the Lineaweaver–Burk plots."}, "hNMNAT-3 [1]": {"target": "T2, hNMNAT-3 (Homo sapiens, UniProt Q96T66)", "T2 construct": "made in house", "T2 sequence (Q96T66 whole entry)": "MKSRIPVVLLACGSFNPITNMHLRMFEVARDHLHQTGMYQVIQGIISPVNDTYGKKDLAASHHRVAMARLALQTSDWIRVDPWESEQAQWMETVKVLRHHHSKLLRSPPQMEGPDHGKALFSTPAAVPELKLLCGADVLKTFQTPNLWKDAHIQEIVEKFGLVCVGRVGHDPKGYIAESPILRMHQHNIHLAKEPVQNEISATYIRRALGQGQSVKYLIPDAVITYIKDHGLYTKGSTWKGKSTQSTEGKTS", "assay": "NMN adenylyltransferase activity assay (pyrophosphatase-coupled, malachite green), hNMNAT-3", "format": "biochemical", "set-up": "key to mode of inhibition (in brackets) towards NMN, hNMNAT-3 / mode of inhibition (in brackets) towards ATP, hNMNAT-3: M, mixed inhibition; C, competitive; U, uncompetitive", "details": "for enzyme inhibition in the initial screening, hNMNAT-3: fixed concentration of 0.5 mM inhibitor; for Ki: inhibitor 30 and 90 µM, ± std. error, αKi in the case of uncompetitive inhibition", "source_text": "as §1, §2"}, "hNMNAT-1": {"target": "T3, hNMNAT-1 (Homo sapiens, UniProt Q9HAN9)", "T3 construct": "made in house", "T3 sequence (Q9HAN9 whole entry)": "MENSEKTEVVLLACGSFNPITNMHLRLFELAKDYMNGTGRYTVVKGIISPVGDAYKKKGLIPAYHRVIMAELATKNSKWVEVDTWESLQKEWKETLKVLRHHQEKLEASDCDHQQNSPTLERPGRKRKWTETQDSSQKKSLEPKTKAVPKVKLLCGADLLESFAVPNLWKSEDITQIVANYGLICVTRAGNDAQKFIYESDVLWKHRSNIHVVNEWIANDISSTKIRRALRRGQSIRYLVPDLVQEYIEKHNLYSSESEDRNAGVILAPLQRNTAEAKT", "assay": "NMN adenylyltransferase activity assay (pyrophosphatase-coupled, malachite green), hNMNAT-1", "format": "biochemical", "set-up": "key to mode of inhibition (in brackets) towards NMN, hNMNAT-1 / mode of inhibition (in brackets) towards ATP, hNMNAT-1: M, mixed inhibition; C, competitive; U, uncompetitive", "details": "for Ki: inhibitor 30 and 90 µM, ± std. error, αKi in the case of uncompetitive inhibition", "source_text": "as §1, §2"}, "hNMNAT-3 [2]": {"target": "T2, hNMNAT-3", "set-up": "method as in PMID 16118205, PMID 18336280", "details": "most sensitive isoform; cited from earlier work"}, "[3]": {"details": "fixed concentration of 0.5 mM inhibitor"}, "[4]": {"details": "ATP varied, NMN fixed (0.5 mM), read-out: Ki towards ATP, hNMNAT-2"}, "[5]": {"details": "NMN varied, ATP fixed (0.5 mM), read-out: Ki towards NMN, hNMNAT-2"}, "[6]": {"details": "steady-state kinetic analysis, versus ATP"}},
  "note": "Structures can show the parent of a compound that is named as a salt. Where two headings read alike, the source gives them in different places.",
  "data": [
    {"smiles": "C[C@@]1(O)[C@H](O)[C@@H](COP(=O)(O)O)O[C@H]1n1cnc2c(N)ncnc21", "note": "[2′-MeAMP (5), 9H-(2′-C-Methyl-β-D-ribofuranosyl)adenine-5′-monophosphate Tributyl Ammonium Salt]", "values": [
      {"measurement": "enzyme inhibition in the initial screening, hNMNAT-2", "setting": "hNMNAT-2", "value": "absence of inhibition"},
      {"measurement": "enzyme inhibition in the initial screening, hNMNAT-3", "setting": "hNMNAT-3 [1]", "value": "absence of inhibition"},
      {"measurement": "enzyme inhibition in the initial screening, hNMNAT-1", "setting": "hNMNAT-1; [3]", "value": "absence of inhibition"}
    ]},
    {"smiles": "C[C@@]1(O)[C@H](O)[C@@H](COP(=O)([O-])OP(=O)(O)OC[C@H]2O[C@@H]([n+]3cccc(C(N)=O)c3)[C@H](O)[C@@H]2O)O[C@H]1n1cnc2c(N)ncnc21", "note": "[2′-MeNAD (1), P^1-[5′-(2′-C-Methyl-β-D-ribofuranosyl)adenine]-P^2-[5′-(β-D-ribofuranosyl)nicotinamide] Pyrophosphate]", "values": [
      {"measurement": "mode of inhibition (in brackets) towards ATP, hNMNAT-2", "setting": "hNMNAT-2; ATP varied", "value": "M"},
      {"measurement": "Ki", "setting": "hNMNAT-2; [4]", "value": "21 ± 3", "unit": "µM"},
      {"measurement": "mode of inhibition (in brackets) towards NMN, hNMNAT-2", "setting": "hNMNAT-2; NMN varied", "value": "M"},
      {"measurement": "Ki", "setting": "hNMNAT-2; [5]", "value": "15 ± 3", "unit": "µM"},
      {"measurement": "mode of inhibition (in words), hNMNAT-2", "setting": "hNMNAT-2; steady-state kinetic analysis", "value": "mixed-type inhibition with a strong non-competitive character"},
      {"measurement": "inhibition at 500 µM", "setting": "hNMNAT-1; fixed concentration of 0.5 mM inhibitor, read-out: enzyme inhibition in the initial screening, hNMNAT-1", "value": "< 50", "unit": "%"}
    ]},
    {"smiles": "C[C@@]1(O)[C@H](O)[C@@H](COP(=O)([O-])OP(=O)(O)OC[C@H]2O[C@@H]([n+]3cccc(C(=O)O)c3)[C@H](O)[C@@H]2O)O[C@H]1n1cnc2c(N)ncnc21", "note": "[2′-MeNaAD (3), P^1-[5′-(2′-C-Methyl-β-D-ribofuranosyl)adenine]-P^2-[5′-(β-D-ribofuranosyl)nicotinic acid] Pyrophospshate]", "values": [
      {"measurement": "mode of inhibition (in brackets) towards ATP, hNMNAT-2", "setting": "hNMNAT-2; ATP varied", "value": "U"},
      {"measurement": "Ki", "setting": "hNMNAT-2; [4]", "value": "41 ± 14", "unit": "µM"},
      {"measurement": "mode of inhibition (in brackets) towards NMN, hNMNAT-2", "setting": "hNMNAT-2; NMN varied", "value": "M"},
      {"measurement": "Ki", "setting": "hNMNAT-2; [5]", "value": "60 ± 18", "unit": "µM"},
      {"measurement": "mode of inhibition versus ATP (in words), hNMNAT-2", "setting": "hNMNAT-2; [6]", "value": "uncompetitive character"},
      {"measurement": "mode of inhibition (in brackets) towards ATP, hNMNAT-3", "setting": "hNMNAT-3 [1]; ATP varied", "value": "C"},
      {"measurement": "Ki", "setting": "hNMNAT-3 [1]; ATP varied, NMN fixed (0.5 mM), read-out: Ki towards ATP, hNMNAT-3", "value": "223 ± 22", "unit": "µM"},
      {"measurement": "mode of inhibition (in brackets) towards NMN, hNMNAT-3", "setting": "hNMNAT-3 [1]; NMN varied", "value": "C"},
      {"measurement": "Ki", "setting": "hNMNAT-3 [1]; NMN varied, ATP fixed (0.5 mM), read-out: Ki towards NMN, hNMNAT-3", "value": "224 ± 17", "unit": "µM"},
      {"measurement": "mode of inhibition (in brackets) towards ATP, hNMNAT-1", "setting": "hNMNAT-1; ATP varied", "value": "U"},
      {"measurement": "Ki", "setting": "hNMNAT-1; ATP varied, NMN fixed (0.5 mM), read-out: Ki towards ATP, hNMNAT-1", "value": "82 ± 14", "unit": "µM"},
      {"measurement": "mode of inhibition (in brackets) towards NMN, hNMNAT-1", "setting": "hNMNAT-1; NMN varied", "value": "C"},
      {"measurement": "Ki", "setting": "hNMNAT-1; NMN varied, ATP fixed (0.5 mM), read-out: Ki towards NMN, hNMNAT-1", "value": "168 ± 19", "unit": "µM"},
      {"measurement": "mode of inhibition versus ATP (in words), hNMNAT-1", "setting": "hNMNAT-1; [6]", "value": "uncompetitive character"}
    ]},
    {"smiles": "C[C@@]1(O)[C@@H](COP(=O)(O)O)O[C@@H](n2cnc3c(N)ncnc32)[C@@H]1O", "note": "[3′-MeAMP (6), 9H-(3′-C-Methyl-β-D-ribofuranosyl)adenine-5′-monophosphate Tributyl Ammonium Salt]", "values": [
      {"measurement": "enzyme inhibition in the initial screening, hNMNAT-2", "setting": "hNMNAT-2", "value": "absence of inhibition"},
      {"measurement": "enzyme inhibition in the initial screening, hNMNAT-3", "setting": "hNMNAT-3 [1]", "value": "absence of inhibition"},
      {"measurement": "enzyme inhibition in the initial screening, hNMNAT-1", "setting": "hNMNAT-1; [3]", "value": "absence of inhibition"}
    ]},
    {"smiles": "C[C@@]1(O)[C@H](O)[C@@H](CO)O[C@H]1n1cnc2c(N)ncnc21", "note": "[Compound 11, 2′-MeAdo]", "values": [
      {"measurement": "enzyme inhibition in the initial screening, hNMNAT-2", "setting": "hNMNAT-2", "value": "absence of inhibition"},
      {"measurement": "enzyme inhibition in the initial screening, hNMNAT-3", "setting": "hNMNAT-3 [1]", "value": "absence of inhibition"},
      {"measurement": "enzyme inhibition in the initial screening, hNMNAT-1", "setting": "hNMNAT-1; [3]", "value": "absence of inhibition"}
    ]},
    {"smiles": "C[C@@]1(O)[C@@H](CO)O[C@@H](n2cnc3c(N)ncnc32)[C@@H]1O", "note": "[Compound 12, 3′-MeAdo]", "values": [
      {"measurement": "enzyme inhibition in the initial screening, hNMNAT-2", "setting": "hNMNAT-2", "value": "absence of inhibition"},
      {"measurement": "enzyme inhibition in the initial screening, hNMNAT-3", "setting": "hNMNAT-3 [1]", "value": "absence of inhibition"},
      {"measurement": "enzyme inhibition in the initial screening, hNMNAT-1", "setting": "hNMNAT-1; [3]", "value": "absence of inhibition"}
    ]},
    {"smiles": "O=C(OC[C@H]1O[C@@H](OC(=O)c2cc(O)c(O)c(OC(=O)c3cc(O)c(O)c(O)c3)c2)[C@H](OC(=O)c2cc(O)c(O)c(OC(=O)c3cc(O)c(O)c(O)c3)c2)[C@@H](OC(=O)c2cc(O)c(O)c(OC(=O)c3cc(O)c(O)c(O)c3)c2)[C@@H]1OC(=O)c1cc(O)c(O)c(OC(=O)c2cc(O)c(O)c(O)c2)c1)c1cc(O)c(O)c(OC(=O)c2cc(O)c(O)c(O)c2)c1", "note": "[Gallotannin]", "values": [
      {"measurement": "IC50", "setting": "hNMNAT-3 [2]", "value": 2, "unit": "µM"}
    ]}
  ]
}
